Test results as given in publication PMC12189671, “Antioxidant Activity and Cytotoxicity Evaluation of New Catechol Hydrazinyl-Thiazole Derivatives as Potential Protectors in Retinal Degenerative Processes” (Antioxidants, 2025).

What was measured:
[1] = test system: rat microsomal membrane lipid peroxidation; experiment: Lipid peroxidation inhibition assay (LPI), 2-thiobarbituric acid method; assay type: biochemical; settings: ascorbic acid/Fe^2+ system, 37 °C, 45 min
Method: Rat liver microsomes were homogenized in saline, and the resulting homogenates were centrifuged at 9000× g for 20 min at 4 °C to remove cell debris. The supernatant underwent ultracentrifugation at 110,000× g for 40 min at 4 °C. The pelleted microsomal fraction was subsequently washed with saline via another round of ultracentrifugation under identical conditions. Thereafter, the pellet was resuspended in Tris-HCl buffer (pH 7.4) to achieve a concentration equivalent to 0.5 g liver per mL and was stored until further analysis (at −80 °C). For the assay, the microsomal preparation was thermally inactivated by incubation at 90 °C for 90 s, then homogenized again and diluted to a final concentration equivalent to 4 mM fatty acid equivalents. […] All mixtures were incubated at 37 °C under air with continuous shaking. […] This was followed by heating at 90 °C for 20 min and centrifugation at 3000 rpm for 15 min. As a result of the breakdown of unsaturated fatty acids, malondialdehyde reacts with the 2-thiobarbituric acid to produce a pink compound due to the formation of a Schiff base. The extent of lipid peroxidation was measured spectrophotometrically at 535/600 nm, which is proportional to the amount of the chromogen reaction product formed between 2-thiobarbituric acid and malondialdehyde. The determinations were performed in triplicate, and the standard deviation was within ±10% of the mean value.

[2] = DPPH radical scavenging assay; settings: 30 min incubation, λ = 517 nm
Method: The DPPH^• radical scavenging assay is based on transferring a hydrogen atom from the tested compounds to the violet stable free radical DPPH^• (2,2-diphenyl-1-picrylhydrazyl radical), converting it into a yellow compound. The assay was conducted using tested compounds and references in concentrations ranging from 2 to 50 µM, according to our adaptation of the protocol of Brand-Williams et al.. The absorbance of the samples is given by the remaining unreacted reagent radical, and it is inversely proportional to the amount of DPPH^• neutralized. The absorbance of the samples was measured at λ = 517 nm after 30 min of incubation in the dark at room temperature. The DPPH^• radical scavenging activity of the compounds was calculated using Equation (1):(1) DPPH^• scavenging (%)=control absorbance−sample absorbance/control absorbance×100

[3] = ABTS radical cation decolorization assay; settings: 10 min incubation, pH 7.4, λ = 734 nm
Method: The ABTS^•+ (2,2′-azinobis-(3-ethylbenzothiazoline-6-sulfonic acid) decolorization assay, based on the method of Re et al., was performed in the concentration range of 1 to 25 µM according to protocols previously reported by our group. The reagent was prepared in a 0.1 M potassium phosphate buffer (pH 7.4) and activated overnight with MnO2 [89]. Prior to use, the stability of the ABTS^•+ reagent was verified by checking its absorbance at λ = 734 nm over one hour, ensuring a consistent absorption of around 0.7. The mixtures were incubated for 10 min in the dark at room temperature. The absorbance of the samples is given by the remaining unreacted reagent radical, and it is inversely proportional to the amount of ABTS^•+ neutralized. The ABTS^•+ scavenging activity of compounds was calculated using Equation (2).(2) ABTS^•^+ scavenging (%)=control absorbance−sample absorbance/control absorbance×100

[4] = design: method as in PMID 30881661; settings: free ICG, used as reference; cited from earlier work
[5] = Indirect 1O2 scavenging assay (ICG photo-generator, DPBF probe)
Method: The ^1O2 scavenging assay was employed using a previously established indirect protocol from our research group. In brief, indocyanine green (ICG), from Sigma–Aldrich (St. Louis, MO, USA), was utilized to induce ^1O2 production in the presence of 5a and 5b. Ascorbic acid was used as a reference antioxidant agent, and a blank sample without ^1O2 scavengers was prepared. The reaction mixtures were exposed to a Micro Raman System R-3000 (Photonitech, Singapore, Singapore) laser diode,(λ = 785 nm, 190 mW power) for a total time of 100 s. To evaluate the ^1O2 scavenging activity of the compounds 5a,b, the degradation of 1,3-diphenylisobenzofuran (DPBF), obtained from Alfa Aesar (Haverhill, MA, USA), was measured using a V-730 spectrophotometer (Jasco International Co., Ltd., Tokyo, Japan). To determine the ^1O2 quantum yields (Φ(^1O2)) of ICG in the presence of the studied molecules, the following equation was used: Φ(^1O2) = Φ(^1O2) ^ICG × ((S × F^ICG)/(S^ICG × F)), where S represents the slope of the absorbance difference of DPBF over time, F is the absorption correction factor (F = 1 − 10^−OD), and OD is the optical density at the excitation wavelength, λ = 785 nm. The Φ(^1O2) equal to 15.0% of free ICG was used as a reference. The concentrations utilized in the experiment were 0.1 mM for DPBF and 10^−5 M for ICG and the ^1O2 scavengers. Free DPBF was used as a control.
The efficacy of compounds 5a,b against ^1O2 was assessed using an indirect approach. ICG was used as a photo-induced ^1O2 generator alongside DPBF, serving as an indirect chemical probe capable of characterizing ^1O2 release in solution. This setup allowed us to evaluate the ^1O2 scavenging capacity of the tested molecules and compare their activity to a reference compound, specifically ascorbic acid. The samples were exposed to 785 nm laser radiation, and at 10-s intervals after irradiation, their UV-Vis absorption spectra were measured and analyzed (Figure 9). Subsequently, we determined the ^1O2 quantum yields (Φ(^1O2)) of ICG in the presence of 5a,b and ascorbic acid, using the Φ(^1O2) of free ICG of 15.0% as reference.

OR51E2 = test system: OR51E2; design: method as in PMID 29249973; settings: RPE cells; cited from earlier work
[6] = Ferrous ions chelation assay (ferrozine)
Method: Solutions of the tested compounds or ethylenediaminetetraacetic acid disodium salt (EDTA-Na2), used as a positive control, were thoroughly mixed with 0.5 mL of FeSO4 (0.125 mM) and 0.5 mL of ferrozine (0.315 mM). After a 10-min incubation in the dark at room temperature, the absorbance was measured at λ = 562 nm.

SMILES: Cc1c(C)c2c(c(C)c1O)CCC(C)(C(=O)O)O2 (stereo not shown) [Trolox, reference compound]
- IC50 [1]: 25 µM
- IC50 [2]: 35.8 µM
- IC50 [3]: 15.9 µM

SMILES: CC1(C)C(/C=C/C=C/C=C/C=C2\N(CCCCS(=O)(=O)O)c3ccc4ccccc4c3C2(C)C)=[N+](CCCCS(=O)(=O)[O-])c2ccc3ccccc3c21 [ICG, indocyanine green]
- ^1O2 quantum yield Φ(^1O2) of ICG alone [4]: 15%

SMILES: O=C1O[C@H]([C@@H](O)CO)C(O)=C1O [Ascorbic acid, ascorbic acid, reference compound]
- IC50 [2]: 50.2 µM
- ^1O2 quantum yield Φ(^1O2) of ICG in the presence of the scavenger ([5]; 10^−5 M ICG and scavenger, 785 nm laser, 100 s): 9.4%
- reduction of ^1O2 quantum yield of ICG compared to ICG alone ([5]; addition of scavenger to ICG): 5.6%

SMILES: CC(=O)/C=C/C1=C(C)CCCC1(C)C [β-ionone]
- threshold concentration to trigger a cellular response (OR51E2): under 10 µM

SMILES: O=C([O-])CN(CCN(CC(=O)O)CC(=O)O)CC(=O)[O-].[Na+].[Na+] [EDTA-Na2, ethylenediaminetetraacetic acid disodium salt, reference compound]
- % of ferrous ions chelation ([6]; 50 nM): 11.71%
- % of ferrous ions chelation ([6]; 100 nM): 20.00%
- % of ferrous ions chelation ([6]; 150 nM): 36.37%
- % of ferrous ions chelation ([6]; 175 nM): 61.98%
- % of ferrous ions chelation ([6]; 200 nM): 86.53%
